Laboratory results published in patent US20040171566A1, “Antisense modulation of p38 mitogen activated protein kinase expression” (priority 1999, published 2004).

Columns and labels:
p38α mRNA = test: Reduction of p38α mRNA in fibroblasts; type: cell-based; details: read-out: IC50 for reducing p38α mRNA
[1] = mouse, in vivo
Method: For the aerosol studies, the protocol described above was slightly modified. Male Balb/c mice were injected IP with OVA (20 μg) in aluminum hydroxide on days 0 and 14. Aerosol dosing was performed with nebulized sterile saline, antisense oligonucleotide or mismatched control oligonucleotide using 25, 125 and 250 μg/ml solutions (5 mg/kg) for 30 min. on days 14-20 in a closed chamber. Aerosol lung challenge was carried out with nebulized saline or 1% OVA for 20 min. on days 18, 19 and 20. BAL fluid was collected at 24 hr post-last lung challenge (cell differentials) or at 2-12 h post-challenge (cytokine analysis). AHR was measured 24 hours after OVA challenge. Mice were exposed to aerosolized methacholine 24 hr post-last lung challenge from 2-80 mg/ml for 3 min. until a 200% increase in Penh was achieved.

rat p38α mRNA = test: Rat p38α mRNA levels in NR-8383 cells, quantitative real-time PCR; type: cell-based; details: 300 nM oligonucleotide with FuGENE 6, 24 hours, mRNA by quantitative real-time PCR, average of two experiments
p38α = p38α knock-down in mouse T cell line EL4, Western blotting; type: cell-based
[2] = system: ovalbumin (OVA)-induced airway hyperresponsiveness; test: Mouse model of allergic inflammation (OVA), intratracheal oligonucleotide administration; type: in vivo; details: OVA mice
Method: In the mouse model of allergic inflammation, mice were sensitized and challenged with aerosolized chicken ovalbumin (OVA). Airway responsiveness was assessed by inducing airflow obstruction with a methacholine aerosol using a noninvasive method. This methodology utilized unrestrained conscious mice that are placed into the main chamber of a plthysmograph (Buxco Electronics, Inc., Troy, N.Y.). Pressure differences between this chamber and a reference chamber were used to extrapolate minute volume, breathing frequency and enhanced pause (Penh). […] This parameter closely correlates with lung resistance as measured by traditional invasive techniques using ventilated animals (Hamelmann et al., 1997). […]
For intratracheal administration of ISIS 101757, female Balb/c mice (Charles Rivers Laboratory, Taconic Farms, N.Y.) were maintained in micro-isolator cages housed in a specific pathogen-free (SPF) facility. […] Animals were analyzed about 24 hours following the last nebulization using the Buxco electronics Biosystem. Lung function (Penh), lung histology (cell infiltration and mucus production), target mRNA reduction in the lung, inflammation (BAL cell type & number, cytokine levels), spleen weight and serum AST/ALT were determined. […]

Substance: ISIS 101757: antisense oligonucleotide targeted to mouse p38α, SEQ ID NO 177; 2′-MOE gapmer, all phosphorothioate linkages (antisense AGGTGCTCAGGACTCCATTT; all phosphorothioate, sugars by position and methylation of C not given here; 2'-MOE gapmer)
- IC50 (p38α mRNA): ~250 nM
- Oligonucleotide levels in lung tissue sufficient to achieve the pharmacological effects [1]: up to 1 μg/g
- % Inhib. rat p38α (rat p38α mRNA): 53%
- p38α knock-down effect (p38α): confirmed
- Penh response to methacholine (50 mg/ml) challenge [2]: dose-dependent inhibition
